{"source": "patent US6984660B2", "about": "“P-thienylbenzylamides as agonists of angiotensin-(1-7) receptors, and methods of their preparation and use” (Aventis Pharma Deutschland GmbH, priority 2001, dated 2006)", "key": {"[1]": {"test_system": "primarily cultivated endothelial cells derived from bovine aortas", "test": "Test 2: functional assay, stimulation of intracellular cGMP production in endothelial cells", "assay_type": "cell-based", "details": "for EC50: Bos taurus, Endothelial cell, production of intracellular cGMP, marker for NO production and release, radioimmunoassay; for stimulatory effect on cGMP after preincubation with a selective angiotensin-(1-7) receptor antagonist: preincubation with [D-Ala^7]-angiotensin-(1-7); for effect on the production of cGMP after preincubation with an AT1 receptor antagonist: preincubation with angiotensin II AT1 subtype antagonist, such as EXP3174; for effect on the production of cGMP after preincubation with an AT2 receptor antagonist: preincubation with angiotensin II AT2 subtype antagonist, such as PD 123,319", "experimental": "The stimulatory effect of the compounds of formula (I) on the production of intracellular cGMP, which is a marker for the production and release of NO in endothelial cells, was measured on primarily cultivated endothelial cells derived from bovine aortas, as described, for example, in J. Pharmacol. Exp. Ther. (1992) 262:729-733, herein incorporated by reference.\nAfter having been enzymatically digested (dispase II; Boehringer, Mannheim) from the bovine aorta, the endothelial cells were taken up in culture medium (Dulbecco's modified Eagle's Ham's F 12 medium 1:1 containing penicillin (10 U/L), streptomycin (10 ug/L), L-glutamine (1 mmol/L), glutathione and L-(+)-ascorbic acid (in each case 5 mg/L) and heat-inactivated fetal calf serum (20%)), washed once (centrifugation at 170×g, 10 min) and resuspended in culture medium. This cell suspension was seeded in 6-well plates (Nunc Intermed, Wiesbaden) (˜250 μg of protein or […] per well), with the wells then being filled with culture medium and the plates kept at 37° C. in an incubator which was moistened and gassed with 95% O2-5% CO2.\nAfter confluence had been reached (6-8 days after seeding), the culture medium was removed and the cell monolayer was washed twice with warm HEPES/Tyrode's solution. After that, the cells were preincubated, at 37° C. for 15 min, in HEPES/Tyrode's solution containing IBMX (3-isobutyl-1-methylxanthine, 10^−4 mol/L, Serva, Heidelberg). The incubation was started by adding SOD (bovine erythrocyte superoxide dismutase, 3×10^−7 mol/L, Serva, Heidelberg) and the test substances of formula (I) at the given concentrations. After the appropriate incubation time, the incubation medium was aspirated and the cells which remained behind were immediately extracted in 1 N formic acid/acetone (v/v, 15:85) and scraped off. The resulting suspension was ultrasonicated (10 sec) and then centrifuged down (3000×g, 10 min). For the purpose of determining cGMP by means of radioimmunoassay (New England Nuclear, Boston, Mass.), the supernatant was lyophilized and the lyophilisate taken up in sodium acetate buffer (0.05 mol/L; pH 6.2). The content (pmol) of intracellular cGMP was related to mg of cell protein."}}}
{"smiles": "CCNC(=O)NS(=O)(=O)c1sc(CC(C)C)cc1-c1ccc(CN(C(=O)c2ccccc2)[C@H](C(=O)OCC)C(C)C)cc1", "note": "[Example 5, Ethyl 2-N-benzoyl-2-N-[4-[2-(ethylaminocarbonylsulfonamido)-5-isobutyl-3-thienyl]benzyl]amino-3-methyl-L-butyrate]", "values": [{"measurement": "melting point", "result": "88 to 90", "unit": "°C"}]}
{"smiles": "CCCCOC(=O)NS(=O)(=O)c1sc(CC(C)C)cc1-c1ccc(CN(C(=O)c2ccco2)[C@H](C(=O)O)C(C)C)cc1", "note": "[Example 13, 2-N-(2-Furanoyl)-2-N-[4-[2-(n-butyloxycarbonylsulfonamido)-5-isobutyl-3-thienyl]benzyl]amino-3-methyl-L-butyric acid]", "values": [{"measurement": "melting point", "result": 93, "unit": "°C"}]}
{"smiles": "CCNC(=O)NS(=O)(=O)c1sc(CC(C)C)cc1-c1ccc(CN(C(=O)c2ccccc2)[C@H](C(=O)OC)C(C)C)cc1", "note": "[Example 4, Methyl 2-N-benzoyl-2-N-[4-[2-(ethylaminocarbonylsulfonamido)-5-isobutyl-3-thienyl]benzyl]amino-3-methyl-L-butyrate]", "values": [{"measurement": "EC50", "setting": "[1]", "result": 600, "unit": "nM"}, {"measurement": "stimulatory effect on cGMP after preincubation with a selective angiotensin-(1-7) receptor antagonist", "setting": "[1]", "result": "inhibited"}, {"measurement": "effect on the production of cGMP after preincubation with an AT1 receptor antagonist", "setting": "[1]", "result": "not influenced"}, {"measurement": "effect on the production of cGMP after preincubation with an AT2 receptor antagonist", "setting": "[1]", "result": "not influenced"}, {"measurement": "melting point", "result": 65, "unit": "°C"}]}
{"smiles": "CCCCOC(=O)NS(=O)(=O)c1sc(CC(C)C)cc1-c1ccc(CN(C(=O)CCC(=O)O)[C@H](C(=O)O)C(C)C)cc1", "note": "[Example 17, 2-N-(3-Carboxypropionyl)-2-N-[4-[2-(n-butyloxycarbonylsulfonamido)-5-isobutyl-3-thienyl]benzyl]amino-3-methyl-L-butyric acid]", "values": [{"measurement": "melting point", "result": 66, "unit": "°C"}]}
{"smiles": "CNC(=O)NS(=O)(=O)c1sc(CC(C)C)cc1-c1ccc(CN(C(=O)CCC(=O)OC)[C@H](C(=O)OC)C(C)C)cc1", "note": "[Example 18]", "values": [{"measurement": "melting point", "result": 158, "unit": "°C"}]}
{"smiles": "CCNC(=O)NS(=O)(=O)c1sc(CC(C)C)cc1-c1ccc(CN(C(C)=O)[C@H](C(=O)O)C(C)C)cc1", "note": "[Example 11, 2-N-Acetyl-2-N-[4-[2-(ethylaminocarbonylsulfonamido)-5-isobutyl-3-thienyl]benzyl]amino-3-methyl-L-butyric acid]", "values": [{"measurement": "melting point", "result": 136, "unit": "°C"}]}
{"smiles": "CCNC(=O)NS(=O)(=O)c1sc(CC(C)C)cc1-c1ccc(CN(C(C)=O)[C@H](C(=O)OCC)C(C)C)cc1", "note": "[Example 10, Ethyl 2-N-acetyl-2-N-[4-[2-(ethylaminocarbonylsulfonamido)-5-isobutyl-3-thienyl]benzyl]amino-3-methyl-L-butyrate]", "values": [{"measurement": "melting point", "result": 81, "unit": "°C"}]}
{"smiles": "CCNC(=O)NS(=O)(=O)c1sc(CC(C)C)cc1-c1ccc(CN(C(C)=O)[C@H](C(=O)OC)C(C)C)cc1", "note": "[Example 9, Methyl 2-N-acetyl-2-N-[4-[2-(ethylaminocarbonylsulfonamido)-5-isobutyl-3-thienyl]benzyl]amino-3-methyl-L-butyrate]", "values": [{"measurement": "EC50", "setting": "[1]", "result": 40, "unit": "nM"}, {"measurement": "stimulatory effect on cGMP after preincubation with a selective angiotensin-(1-7) receptor antagonist", "setting": "[1]", "result": "inhibited"}, {"measurement": "effect on the production of cGMP after preincubation with an AT1 receptor antagonist", "setting": "[1]", "result": "not influenced"}, {"measurement": "effect on the production of cGMP after preincubation with an AT2 receptor antagonist", "setting": "[1]", "result": "not influenced"}, {"measurement": "melting point", "result": 130, "unit": "°C"}]}
{"smiles": "CNC(=O)NS(=O)(=O)c1sc(CC(C)C)cc1-c1ccc(CN(C(=O)c2ccco2)[C@H](C(=O)OC)C(C)C)cc1", "note": "[Example 14, Methyl 2-N-(2-furanoyl)-2-N-[4-[2-(methylaminocarbonylsulfonamido)-5-isobutyl-3-thienyl]benzyl]amino-3-methyl-L-butyrate]", "values": [{"measurement": "melting point", "result": 84, "unit": "°C"}]}
{"smiles": "CNC(=O)NS(=O)(=O)c1sc(CC(C)C)cc1-c1ccc(CN(C(=O)c2ccco2)[C@H](C(=O)O)C(C)C)cc1", "note": "[Example 15, 2-N-(2-Furanoyl)-2-N-[4-[2-(methylaminocarbonylsulfonamido)-5-isobutyl-3-thienyl]benzyl]amino-3-methyl-L-butyric acid]", "values": [{"measurement": "melting point", "result": 134, "unit": "°C"}]}
{"smiles": "CCNC(=O)NS(=O)(=O)c1sc(CC(C)C)cc1-c1ccc(CN(C(=O)c2ccccc2)[C@H](C(=O)O)C(C)C)cc1", "note": "[Example 6, 2-N-Benzoyl-2-N-[4-[2-(ethylaminocarbonylsulfonamido)-5-isobutyl-3-thienyl]benzyl]amino-3-methyl-L-butyric acid]", "values": [{"measurement": "melting point", "result": 149, "unit": "°C"}]}
